From PubChem BioAssay (NCI)
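Values below derive from 48-hour exposures of cells grown in 96-well plates, with endpoints linearly interpolated between the two concentrations bracketing the appropriate inhibition level. GI50: concentration for 50% inhibition of growth. TGI denotes the concentration required for complete inhibition of growth.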

Columns and labels:
Test in all cases: NCI tumour cell line growth inhibition, 48 h
SW-620 colon = tested on: SW-620 colon
IGROV1 ovarian = tested on: IGROV1 ovarian
SF-268 CNS = tested on: SF-268 CNS
OVCAR-3 ovarian = tested on: OVCAR-3 ovarian
NCI-H23 lung = tested on: NCI-H23 lung
MALME-3M melanoma = tested on: MALME-3M melanoma
OVCAR-8 ovarian = tested on: OVCAR-8 ovarian
HCC-2998 colon = tested on: HCC-2998 colon
K-562 leukemia = tested on: K-562 leukemia
SNB-19 CNS = tested on: SNB-19 CNS

SMILES	TGI (SW-620 colon)	TGI (IGROV1 ovarian)	TGI (SF-268 CNS)	TGI (OVCAR-3 ovarian)	TGI (NCI-H23 lung)	TGI (MALME-3M melanoma)	TGI (OVCAR-8 ovarian)	TGI (HCC-2998 colon)	TGI (K-562 leukemia)	TGI (SNB-19 CNS)	GI50 (SW-620 colon)	GI50 (IGROV1 ovarian)	GI50 (SF-268 CNS)	GI50 (OVCAR-3 ovarian)	GI50 (NCI-H23 lung)	GI50 (MALME-3M melanoma)	GI50 (OVCAR-8 ovarian)	GI50 (HCC-2998 colon)	GI50 (K-562 leukemia)	GI50 (SNB-19 CNS)
CC(C)(C)CNCCO	> 100 µM	> 100 µM	> 100 µM	> 100 µM	> 100 µM	> 100 µM	> 100 µM	> 100 µM	> 100 µM	> 100 µM	–	–	–	–	–	–	–	–	–	–
O=C(Nc1ccccc1/C=C/c1n[nH]c2ccccc12)c1ccccc1	11.5 µM	22.4 µM	17.3 µM	16.5 µM	17.6 µM	12 µM	14.6 µM	4.23 µM	12.6 µM	22.5 µM	1.71 µM	6.47 µM	3.75 µM	5.26 µM	2.2 µM	4.05 µM	3.95 µM	1.62 µM	3.47 µM	5.93 µM
CC(C)CC(NC(=O)C(O)C(N)Cc1ccccc1)C(=O)O (stereo not given)	> 100 µM	> 100 µM	> 100 µM	> 100 µM	> 100 µM	> 100 µM	> 100 µM	> 100 µM	> 100 µM	> 100 µM	–	–	–	–	–	–	–	–	–	–
COc1ccc(-c2nn3ncccc3c2-c2ccnc(Nc3ccc(F)c(F)c3)n2)cc1	> 25 µM	24.5 µM	> 25 µM	> 25 µM	> 25 µM	> 25 µM	> 25 µM	> 25 µM	> 25 µM	> 25 µM	17 µM	8.47 µM	14.2 µM	11.8 µM	11.5 µM	11.3 µM	11.2 µM	6.72 µM	6.57 µM	14.3 µM
CC(C)Cn1cnc2c(N)nc3ccccc3c21	> 100 µM	> 100 µM	> 100 µM	> 100 µM	> 100 µM	> 100 µM	> 100 µM	> 100 µM	> 100 µM	> 100 µM	41.8 µM	51.8 µM	61.3 µM	> 92.9 µM	37.1 µM	> 100 µM	67.5 µM	> 63.5 µM	> 54.7 µM	> 93.3 µM
